Measured values published in patent publication US8962608B2, “Cycloalkylnitrile pyrazole carboxamides as janus kinase inhibitors” (Merck Sharp & Dohme Corp., priority 2011, dated 2015).

Columns and labels:
[1] = target: JAK1 (recombinant purified GST-tagged catalytic domain) (Homo sapiens (Human), UniProt P23458); test: biochemical;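 note: biochemical assay with HTRF read-out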
[2] = target: JAK2 (recombinant purified GST-tagged catalytic domain) (Homo sapiens (Human), UniProt O60674); test: biochemical;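 note: biochemical JAK kinase assay with HTRF detection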
Sequence of JAK2 (recombinant purified GST-tagged catalytic domain) (O60674 849-1124): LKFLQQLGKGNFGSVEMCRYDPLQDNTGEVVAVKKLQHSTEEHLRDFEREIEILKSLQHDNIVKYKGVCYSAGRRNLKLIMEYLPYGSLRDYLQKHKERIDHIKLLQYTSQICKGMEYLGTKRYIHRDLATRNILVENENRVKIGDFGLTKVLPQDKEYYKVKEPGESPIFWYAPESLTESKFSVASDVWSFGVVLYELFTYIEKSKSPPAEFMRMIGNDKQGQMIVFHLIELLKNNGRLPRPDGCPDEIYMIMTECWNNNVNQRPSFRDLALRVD

Sequence of JAK1 (recombinant purified GST-tagged catalytic domain) (P23458 875-1153): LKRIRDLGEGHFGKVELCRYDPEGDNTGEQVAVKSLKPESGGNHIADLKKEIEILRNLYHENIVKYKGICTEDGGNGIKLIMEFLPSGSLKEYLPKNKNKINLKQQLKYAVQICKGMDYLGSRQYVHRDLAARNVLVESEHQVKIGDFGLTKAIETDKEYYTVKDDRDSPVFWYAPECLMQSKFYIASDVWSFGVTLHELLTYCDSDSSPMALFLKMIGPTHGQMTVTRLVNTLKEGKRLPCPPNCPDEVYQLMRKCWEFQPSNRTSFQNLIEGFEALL

Row | SMILES | IC50 [1] [nM] | IC50 [2] [nM]
1 | N#C[C@@H]1C[C@H](OCC2CC2)CC[C@H]1n1cc(C(N)=O)c(Nc2ccnc(F)c2)n1 (single isomer, unassigned) [Example 26-2, 1-[(1R,2R,4R or 1S,2S,4S)-2-cyano-4-(cyclopropylmethoxy)cyclohexyl]-3-[(2-fluoropyridin-4-yl)amino]-1H-pyrazole-4-carboxamide] | 6 | 76
2 | N#C[C@H]1C[C@@H](O)CC[C@@H]1n1cc(C(N)=O)c(Nc2ccc(C(F)(F)F)cc2)n1 (single isomer, unassigned) [Example 33-4, 1-[(1S,2S,4S or 1R,2R,4R)-2-cyano-4-hydroxycyclohexyl]-3-{[4-(trifluoromethyl)phenyl]amino}-1H-pyrazole-4-carboxamide] | 5 | 90
3 | N#C[C@H]1C[C@H](O)CC[C@@H]1n1cc(C(N)=O)c(Nc2ccc(C(F)F)nc2)n1 (single isomer, unassigned) [Example 25-16, 1-[(1S,2S,4R or 1R,2R,4S)-2-cyano-4-hydroxycyclohexyl]-3-{[6-(difluoromethyl)pyridin-3-yl]amino}-1H-pyrazole-4-carboxamide] | 3 | 10
4 | N#C[C@@H]1C[C@@H](NC2CC3(CCCC3)C2)CC[C@H]1n1cc(C(N)=O)c(Nc2ccc(C(F)(F)F)cc2)n1 (single isomer, unassigned) [Example 30-5, 1-[(1R,2R,4S or 1S,2S,4R)-2-cyano-4-(spiro[3.4]oct-2-ylamino)cyclohexyl]-3-{[4-(trifluoromethyl)phenyl]amino}-1H-pyrazole-4-carboxamide] | 21 | 665
5 | N#C[C@@H]1C[C@@H](NCC2CCC2)CC[C@H]1n1cc(C(N)=O)c(Nc2ccc(C(F)(F)F)cc2)n1 (single isomer, unassigned) [Example 30-16, 1-{(1R,2R,4S or 1S,2S,4R)-2-cyano-4-[(cyclobutyl-methyl)amino]cyclohexyl}-3-{[4-(trifluoro-methyl)phenyl]amino}-1H-pyrazole-4-carboxamide] | 2 | 242
6 | CC1(O)CN([C@@H]2CC[C@H](n3cc(C(N)=O)c(Nc4ccc(C(F)(F)F)cc4)n3)[C@@H](C#N)C2)C1 (single isomer, unassigned) [Example 28-199, 1-[(1S,2S,4R or 1R,2R,4S)-2-cyano-4-(3-hydroxy-3-methylazetidin-1-yl)cyclohexyl]-3-{[4-(trifluoromethyl)phenyl]amino}-1H-pyrazole-4-carboxamide] | 0.3 | 9
7 | N#C[C@H]1C[C@H](N2C[C@@H]3[C@@H](CO)[C@@H]3C2)CC[C@@H]1n1cc(C(N)=O)c(Nc2ccc(C(F)(F)F)cc2)n1 (single isomer, unassigned) [Example 28-15, 1-{(1S,2S,4R or 1R,2R,4S)-2-cyano-4-[(1R,5S,6R or 1S,5R,6S)-6-(hydroxymethyl)-3-azabicyclo[3.1.0]hex-3-yl]cyclohexyl}-3-{[4-(trifluoromethyl)phenyl]amino}-1H-pyrazole-4-carboxamide] | 0.9 | 22
8 | N#C[C@H]1CCCC[C@@H]1n1cc(C(N)=O)c(Nc2cnc3cc(F)ccc3c2)n1 (single isomer, unassigned) [Example 17-41, 1-[(1S,2S or 1R,2R)-2-cyanocyclohexyl]-3-[(7-fluoroquinolin-3-yl)amino]-1H-pyrazole-4-carboxamide] | 2 | 16
9 | N#C[C@H]1C[C@@H](C(=O)NC2CC(F)(F)C2)CC[C@@H]1n1cc(C(N)=O)c(Nc2ccc(Cl)cc2)n1 (single isomer, unassigned) [Example 35-20, 3-[(4-chlorophenyl)amino]-1-{(1S,2S,4S or 1R,2R,4R)-2-cyano-4-[(3,3-difluorocyclobutyl)carbamoyl]cyclohexyl}-1H-pyrazole-4-carboxamide] | 21 | 172
10 | CC(C)(c1ccc(Nc2nn([C@H]3CC[C@H](O)C[C@@H]3C#N)cc2C(N)=O)cc1)C(O)C(F)(F)F (single isomer, unassigned) [Example 33-16, 1-[(1S,2S,4S or 1R,2R,4R)-2-cyano-4-hydroxycyclohexyl]-3-{[4-(3,3,3-trifluoro-(2R or 2S)-hydroxy-1,1-dimethylpropyl)phenyl]amino}-1H-pyrazole-4-carboxamide] | 0.7 | 3
11 | N#C[C@H]1CC(NC2CCS(=O)(=O)C2)CC[C@@H]1n1cc(C(N)=O)c(Nc2ccc(S(=O)(=O)C(F)(F)F)cc2)n1 (single isomer, unassigned) [Example 28-153, 1-{(1S,2S or 1R,2R)-2-cyano-4-[(1,1-dioxidotetrahydrothiophen-3-yl)amino]cyclohexyl}-3-({4-[(trifluoromethyl)sulfonyl]phen-yl}amino)-1H-pyrazole-4-carboxamide] | 0.4 | 7
12 | CC(=O)c1ccc(Nc2nn([C@H]3CC[C@@H](N4CCC4)C[C@@H]3C#N)cc2C(N)=O)cc1 (single isomer, unassigned) [Example 28-83, 3-[(4-acetylphenyl)amino]-1-[(1S,2S,4R or 1R,2R,4S)-4-azetidin-1-yl-2-cyanocyclohexyl]-1H-pyrazole-4-carboxamide] | 0.4 | 18
13 | N#C[C@H]1C[C@@H](NCc2ccccc2)CC[C@@H]1n1cc(C(N)=O)c(Nc2ccnc(F)c2)n1 (single isomer, unassigned) [Example 28-97, 1-[(1S,2S,4S or 1R,2R,4R)-4-(benzylamino)-2-cyanocyclohexyl]-3-[(2-fluoropyridin-4-yl)amino]-1H-pyrazole-4-carboxamide] | 0.3 | 9
14 | COCCNS(=O)(=O)c1ccc(Nc2nn([C@H]3CCCC[C@@H]3C#N)cc2C(N)=O)cc1 (single isomer, unassigned) [Example 17-98, 1-[(1R,2R or 1S,2S)-2-cyanocyclohexyl]-3-({4-[(2-methoxyethyl)sulfamoyl]phenyl}amino)-1H-pyrazole-4-carboxamide] | 0.25 | 1
15 | CC(C)(c1ccc(Nc2nn([C@H]3CC[C@H](O)C[C@@H]3C#N)cc2C(N)=O)cc1)C(O)C(F)(F)F (single isomer, unassigned) [Example 33-15, 1-[(1S,2S,4S or 1R,2R,4R)-2-cyano-4-hydroxycyclohexyl]-3-{[4-(3,3,3-trifluoro-(2R or 2S)-hydroxy-1,1-dimethylpropyl)phenyl]amino}-1H-pyrazole-4-carboxamide] | 0.5 | 2
16 | N#C[C@@H]1C[C@H](C(=O)N2CC3(COC3)C2)CC[C@H]1n1cc(C(N)=O)c(Nc2ccc(Cl)cc2)n1 (single isomer, unassigned) [Example 35-36, 3-[(4-chlorophenyl)amino]-1-[(1R,2R,4R or 1S,2S,4S)-2-cyano-4-(2-oxa-6-azaspiro[3.3]hept-6-ylcarbonyl)cyclohexyl]-1H-pyrazole-4-carboxamide] | 10 | 111
17 | CN(CC(F)F)[C@H]1CC[C@H](n2cc(C(N)=O)c(Nc3ccc(S(=O)(=O)C(F)(F)F)cc3)n2)[C@@H](C#N)C1 (single isomer, unassigned) [Example 28-114, 1-{(1S,2S,4S or 1R,2R,4R)-2-cyano-4-[(2,2-difluoroethyl)(methyl)amino]cyclo-hexyl}-3-({4-[(trifluoro-methyl)sulfonyl]phenyl}amino)-1H-pyrazole-4-carboxamide] | 3 | 29
18 | CC(C)(C)N[C@H]1CCC(n2cc(C(N)=O)c(Nc3ccc(C(F)(F)F)cc3)n2)[C@@H](C#N)C1 (single isomer, unassigned) [Example 28-204, 1-[(1S,2S,4S or 1R,2R,4R)-4-(tert-butylamino)-2-cyanocyclohexyl]-3-{[4-(trifluoromethyl)phenyl]amino}-1H-pyrazole-4-carboxamide] | 0.2 | 26
19 | N#C[C@H]1CCCC[C@@H]1n1cc(C(N)=O)c(Nc2ccc(S(=O)(=O)NC3CCCCC3)cc2)n1 (single isomer, unassigned) [Example 17-82, 1-[(1R,2R or 1S,2S)-2-cyanocyclohexyl]-3-{[4-(cyclohexylsulfamoyl)phenyl]amino}-1H-pyrazole-4-carboxamide] | 0.5 | 1
20 | CN(CC1(C)COC1)[C@H]1CCC(n2cc(C(N)=O)c(Nc3ccc(Cl)cc3)n2)[C@@H](C#N)C1 (single isomer, unassigned) [Example 28-219, 3-[(4-chlorophenyl)amino]-1-[(1S,2S,4S or 1R,2R,4R)-2-cyano-4-{methyl[(3-methyloxetan-3-yl)methyl]amino}cyclohexyl]-1H-pyrazole-4-carboxamide] | 1 | 11
21 | CC1(C)CN([C@H]2CC[C@H](n3cc(C(N)=O)c(Nc4ccc(C(F)(F)F)cc4)n3)[C@@H](C#N)C2)C1 (single isomer, unassigned) [Example 28-202, 1-[(1S,2S,4S or 1R,2R,4R)-2-cyano-4-(3,3-dimethylazetidin-1-yl)cyclohexyl]-3-{[4-(trifluoromethyl)phenyl]amino}-1H-pyrazole-4-carboxamide] | – | 39
22 | N#C[C@H]1CCCC[C@@H]1n1cc(C(N)=O)c(Nc2ccc(C=O)cc2)n1 (single isomer, unassigned) [Example 17-25, 1-[(1S,2S or 1R,2R)-2-cyanocyclohexyl]-3-[(4-formylphenyl)amino]-1H-pyrazole-4-carboxamide] | – | 3
23 | N#C[C@H]1CCCC[C@@H]1n1cc(C(N)=O)c(Nc2ccc(S(=O)(=O)N3CCOCC3)cc2)n1 (single isomer, unassigned) [Example 17-99, 1-[(1R,2R or 1S,2S)-2-cyanocyclohexyl]-3-{[4-(morpholin-4-ylsulfonyl)phenyl]amino}-1H-pyrazole-4-carboxamide] | – | 1
24 | CN(C)[C@@H]1CC[C@H](n2cc(C(N)=O)c(Nc3ccc(C(F)(F)F)cc3)n2)[C@@H](C#N)C1 (single isomer, unassigned) [Example 28-189, 1-[(1S,2S,4R or 1R,2R,4S)-2-cyano-4-(dimethylamino)cyclohexyl]-3-{[4-(trifluoromethyl)phenyl]amino}-1H-pyrazole-4-carboxamide] | – | 21
